Where a name gives a salt, the structure may show the parent alone.
Key:
activated human C1 = activated human C1 (Homo sapiens, UniProt P09871); assay: Test Code 026 (C1 inhibitor); assay type: biochemical; conditions: serial twofold dilution assay; higher well number indicates higher activity
Source text: (§1) An active inhibitor protects C2 from C1 and C4; (ii) Test Code 035 (C3-C9 inhibitor)--This test determines the ability of the late components of human complement (C3-C9) to lyse EAC 142 in the presence of appropriate dilutions of the test compound. An active inhibitor protects EAC 142 from lysis by human C3-C9; (iii) Test Code 036 (C-Shunt inhibitor)--In this test human erythrocytes rendered fragile are lysed in autologous serum via the shunt pathway activated by cobra venom factor in the presence of appropriate dilutions of the test compound. Inhibition of the shunt pathway results in failure of lysis; (iv) Forssman Vasculitis Test--Here, the well known complement dependent lesion, Forssman vasculitis, is produced in guinea pigs by intradermal injection of rabbit anti-Forssman antiserum. […] Percent inhibition is calculated by comparison with simultaneous controls. […]

[1] = tested on: serum complement activity; assay: Guinea Pig Intraperitoneal Test (GPIP); assay type: in vivo; conditions: 200 mg./kg. i.p.
Source text: An active inhibitor protects C2 from C1 and C4; (ii) Test Code 035 (C3-C9 inhibitor)--This test determines the ability of the late components of human complement (C3-C9) to lyse EAC 142 in the presence of appropriate dilutions of the test compound. An active inhibitor protects EAC 142 from lysis by human C3-C9; (iii) Test Code 036 (C-Shunt inhibitor)--In this test human erythrocytes rendered fragile are lysed in autologous serum via the shunt pathway activated by cobra venom factor in the presence of appropriate dilutions of the test compound. Inhibition of the shunt pathway results in failure of lysis; (iv) Forssman Vasculitis Test--Here, the well known complement dependent lesion, Forssman vasculitis, is produced in guinea pigs by intradermal injection of rabbit anti-Forssman antiserum. The lesion is measured in terms of diameter, edema and hemorrhage and the extent to which a combined index of these is inhibited by prior intraperitoneal injection of the test compound at 200 mg./kg. is then reported, unless otherwise stated; (v) Forssman Shock Test--Lethal shock is produced in guinea pigs by an i.v. injection of anti-Forssman antiserum and the harmonic mean death time of treated guinea pigs is compared with that of simultaneous controls; (vi) Complement Level Reduction Test--In this test, the above dosed guinea pigs, or others, are bled for serum and the complement level is determined in undiluted serum by the capillary tube method of U.S. Pat. No. 3,876,376 and compared to undosed control guinea pigs; (vii) Cap 50 Test--Here, appropriate amounts of the test compound are added to a pool of guinea pig serum in vitro, after which the undiluted serum capillary tube assay referred to above is run. The concentration of compound inhibiting 50% is reported; (viii) Guinea Pig Intraperitoneal Test (GPIP)--Guinea pigs weighing about 300 g. are dosed intraperitoneally (i.p.) with 200 mg./kg. of the test compound dissolved in saline and adjusted to pH 7-8. […] Percent inhibition is calculated by comparison with simultaneous controls. […]

[2] = tested on: shunt pathway activated by cobra venom factor; assay: Test Code 036 (C-Shunt inhibitor); assay type: cell-based; conditions: serial twofold dilution assay; human erythrocytes in autologous serum; higher well number indicates higher activity
Source text: as §1

[3] = tested on: late components of human complement (C3-C9); assay: Test Code 035 (C3-C9 inhibitor); assay type: biochemical; conditions: serial twofold dilution assay; lysis of EAC 142; higher well number indicates higher activity
Source text: as §1

SMILES: O=S(=O)(O)c1cc(NS(=O)(=O)c2cc(S(=O)(=O)Nc3cc(S(=O)(=O)O)cc(S(=O)(=O)O)c3)c3c(Cl)ccc(S(=O)(=O)Nc4cc(S(=O)(=O)O)cc(S(=O)(=O)O)c4)c3c2)cc(S(=O)(=O)O)c1 [5,5',5"-[(8-Chloro-1,3,5-napthalenetriyl)tris (sulfonylimino)]-tri-1,3-benzenedisulfonic acid, hexasodium salt]
- Cl 026 Wells (activated human C1): +7 Wells
- In Vivo Activity (Guinea Pig) % Inhibition Intraperitoneal, 30 minutes ([1]; serum taken 30 minutes after injection): -67%
- In Vivo Activity (Guinea Pig) % Inhibition Intraperitoneal, 60 minutes ([1]; serum taken 60 minutes after injection): -72%
- In Vivo Activity (Guinea Pig) % Inhibition Intraperitoneal, 120 minutes ([1]; serum taken 120 minutes after injection): -81%
- Shunt Inhibition 036 Wells [2]: +5 Wells
- C-Late 035 Wells [3]: +1 Wells
